Measured values published in article PMC11591307, “An RGD-Conjugated Prodrug Nanoparticle with Blood–Brain–Barrier Penetrability for Neuroprotection Against Cerebral Ischemia–Reperfusion Injury” (Antioxidants, 2024).
Residues, ends and D or L forms follow the SMILES beside them. *: point of attachment. X1 = C[C@@H]1[C@H]2[C@H](O[C@@H]3O[C@H](CO)[C@@H](O)[C@H](O)[C@H]3O)OC=C(C(=O)*)[C@H]2C[C@@H]1O

What was measured:
BEnd.3 cells [1] = experiment: Cellular uptake in BEnd.3 cells (LC-MS/MS); type: in vitro ADME, Mouse; details: 6.25 μM; for Intracellular amount over time: 3 or 6 h incubation
Description: BEnd.3 cells were seeded in 60mm dishes at 2 × 10⁶ cells/mL, with 5 mL of DMEM containing 10% FBS. After 12 h, the medium was replaced with 5 mL fresh medium, followed by 1 mL of 6.25 μM LA-1 solution. Cells were incubated for 3 or 6 h, washed twice with PBS, and harvested using 1 mL of HPLC-grade methanol. After vortexing for 2 min and centrifuging at 13,300 rpm for 5 min (6766-HS corning® High Speed Microcentrifuge, Corning, NY, USA), the supernatant was concentrated and reconstituted with 200 μL methanol. Samples were centrifuged again at 13,300 rpm for 10 min, and the supernatant was analyzed via LC–MS (ACQUITY UPLC I-Class/Xevo TQ-XS, Waters, Milford, MA, USA). Standard curves were prepared by serial dilutions of HPLC-grade methanol with concentrations ranging from 1 μg/mL to 100 pg/mL for each LA-1.

BEnd.3 cells [2] = experiment: MTT cytotoxicity assay on BEnd.3 cells; type: cell-based, Mouse; details: 24 h treatment, all three concentrations, Figure S6
Description: Mouse brain microvascular endothelial cells (BEnd.3) were cultured in DMEM medium containing 10% FBS and maintained at 37 °C in a humidified atmosphere with 5% CO2. Drug solutions were prepared by diluting in PBS to the desired concentrations. Cells were seeded at a density of 4000 cells per well in 96-well plates. Once the cells had adhered, 25 μL of LA-1 or loganin solutions at varying concentrations were added to each well, followed by a 24 h incubation. BEnd.3 cells were treated with 3.12 or 6.25 μM of LA-1 or loganin for 24 h, followed by exposure to 200 μM tertiary-butylhydroperoxide (TBHP) for 4 h to induce oxidative stress. After the treatments, 25 μL of MTT solution (5 mg/mL) was added to each well, and the cells were incubated for an additional 4 h. The supernatant was then carefully removed, and the formazan crystals were dissolved in 150 μL of DMSO. Plates were shaken at room temperature for 15 min, and absorbance was measured at 490/570 nm using a microplate reader (Molecular Devices, SpectraMax ABS, San Jose, CA, USA). Cell viability = (Absorbance (drug well))/(Absorbance (control well)) × 100%

[3] = H&E staining of heart, liver, spleen and kidney (biosafety in vivo); design: species or system rat; details: Figure S7
Description: (§1) Fresh brain, heart, liver, spleen, and kidney tissues from rats were fixed in 4% paraformaldehyde, dehydrated, embedded in paraffin, and sectioned into 4 µm slices. For HE staining, the sections were deparaffinized using a dewaxing agent (G1128, Solarbio, Beijing, China), rehydrated in ethanol of various concentrations, stained with hematoxylin and eosin, dehydrated, and sealed with neutral resin. For Nissl staining, thin sections were immersed in the staining solution for 15 min (G1086, Solarbio, Beijing, China), washed with water, rapidly dehydrated with absolute ethanol, and cleared in xylene for 5 min. The sections were then mounted with neutral resin. Finally, the sections were observed using a light microscope (Nikon Eclipse E100, Tokyo, Japan) and analyzed with a 3D viewer.

BEnd.3 cells [4] = experiment: Impact of integrin αvβ3 inhibitor c(RGDfK) on LA-1 uptake in BEnd.3 cells; type: in vitro ADME, Mouse; details: BEnd.3 cells pretreated 1 h with 100 μM c(RGDfK) (method: 20 nM), then 6.25 μM compound for 3 or 6 h, LC-MS/MS
Description: BEnd.3 cells were seeded at 2 × 10⁶ cells/mL in […], with 5 mL DMEM containing 10% FBS. After 12 h, the medium was replaced with 5 mL fresh medium and 1 mL 20 nM c(RGDfK). After 1 h, 1 mL of 6.25 μM compound solution was added, followed by incubation for 3 or 6 h. Cells were washed twice with PBS, collected in 1 mL of HPLC-grade methanol, and centrifuged at 13,300 rpm for 5 min (6766-HS corning® High Speed Microcentrifuge, Corning, NY, USA). The supernatant was concentrated and reconstituted in 200 μL methanol before a final 10 min centrifugation. The supernatant was then used for LC–MS/MS (ACQUITY UPLC I-Class/Xevo TQ-XS, Waters, Milford, MA, USA) analysis.

[5] = Intra-brain distribution after ischemic injury; type: in vivo, rat; details: MCAO rats, LA-1 10 mg/kg vs loganin 30 mg/kg i.v., 3 h after administration, right hemisphere, LC-MS/MS, n = 3
Description: To investigate the distribution of LA-1 and loganin within the brain, the experimental protocol was as follows: First, the rats were subjected to 2 h of induced ischemia, after which the filament was removed to allow for reperfusion. Subsequently, LA-1 (10 mg/kg) and loganin (30 mg/kg) were administered via tail vein injection. […] At the 3 h time point, the rats were anesthetized, perfused with saline via the heart, and then euthanized to collect brain tissue. The brain tissue was divided into left and right hemispheres, with the right hemisphere representing the ischemic region. The right hemisphere was placed into a 5 mL centrifuge tube, and 600 μL of pre-chilled PBS was added, followed by homogenization on ice. A 200 μL aliquot of the homogenate was combined with 200 μL of chromatography-grade methanol and 200 μL of chromatography-grade acetonitrile, and subjected to ultrasonic treatment for 5 min. The mixture was then centrifuged at 13,000 rpm for 10 min at 4 °C, and the supernatant was collected for concentration. After concentration, 200 μL of chromatography-grade methanol was added for reconstitution, followed by another round of high-speed centrifugation to obtain the supernatant. Finally, the target molecules were quantified using LC–MS/MS (ACQUITY UPLC I-Class/Xevo TQ-XS, Waters, Milford, MA, USA). […]

[6] = In vivo pharmacokinetic study, plasma; design: species or system rat; details: SD rats, intravenous tail injection 30 mg/kg, LC-MS/MS, n = 3
Description: We purchased male Sprague-Dawley (SD) rats weighing between 200 and 220 g, which had been catheterized in the jugular vein, from Beijing Sinocon Pharmaceutical Technology Co., Ltd. (Beijing, China). The rats were divided into two groups: LA-1 group and loganin group, with three rats in each group. First, 200 μL of whole blood was collected from each rat at time point zero as a blank control. Subsequently, LA-1 and loganin were administered tail via injection at a dose of 30 mg/kg, dissolved in 0.9% saline. For the pharmacokinetics of the intravenously administered drugs, blood samples of 200 μL were collected from the rats at 5, 15, 30, 45 min, 1, 1.5, 2, 3, 6, 8, 12, and 24 h, using heparinized anticoagulation tubes for processing. After each blood collection, 200 μL of perfusion solution was injected into the rats through the catheter to maintain their physiological status. To obtain the rat plasma, the samples were centrifuged immediately at 3500 rpm for 10 min (5810R) after collection. Methanol (300 μL) was added to plasma samples (100 μL) to precipitate plasma proteins, then rotary evaporation at 35 °C was used to remove methanol from the samples. The LA-1 and loganin were quantified by LC–MS/MS analysis (ACQUITY UPLC I-Class/Xevo TQ-XS, Waters, Milford, MA, USA).

[7] = Morphology by TEM, SEM and AFM; type: physicochemical; details: SEM, AFM, samples in deionized water, dried
Description: Each sample was further diluted to 0.1 mg/mL, and 10 μL was placed dropwise onto copper grids and dried at room temperature for 7 days. Transmission electron microscopy (TEM, […], Tokyo, Japan) and scanning electron microscopy (SEM, Hitachi, S-4800, Tokyo, Japan) were used to observe the morphology. In total, 1 mg of LA-1 or loganin was ultrasonically dispersed in 1 mL of deionized water. Then, 100 μL of the samples were dropped onto 10 × 10 mm mica sheets and air-dried overnight. The surface morphology was characterized by atomic force microscopy (AFM, Bruker, Multimode 8, Bruker, Billerica, Germany).

MCAO rats = experiment: MCAO cerebral ischemia-reperfusion injury model; type: in vivo, rat; details: for Neurological score (Zelonga): 22 h post-treatment, loganin 30 mg/kg, LA-1 10 mg/kg i.v.; for Neurological score (Zelonga) / Infarct area versus model (TTC staining): edaravone 3 mg/kg
Description: A selection of 6–8-week-old Sprague–Dawley (SD) male rats weighing 250 to 280 g were divided into five groups, with 12 rats in each group: sham group, model group (MCAO), edaravone group (3 mg/kg), LA-1 group (10 mg/kg), and loganin group (30 mg/kg). In all groups of rats, anesthesia was induced with 3% isoflurane and then maintained at 2.5% isoflurane during surgery. Briefly, a 1–2 cm incision was made along the midline of the rat’s neck to expose the right carotid artery. Then, a nylon suture (A5-243650, Beijing Cinontech Co. Ltd., Beijing, China) coated with silica gel was inserted through the external carotid artery (ECA) into the middle […], which was then occluded. In this instance, the monofilament was not inserted in the sham group. After 2 h, the nylon suture was removed to allow reperfusion, and different drugs were immediately administered to the rats via the tail vein. Additionally, the sham and model groups received an equivalent dose of distilled water, with a dosage of 2 mL/kg. Cerebral blood flow was measured using a laser speckle flow imaging system (RWD Life science Co., Ltd., RFLSI ZW, Shenzhen, China) at three distinct time points: before ischemia, 2 h after ischemia, and 22 h after reperfusion. Neurological function scores for the treatment groups were assessed blindly at 22 h post-MCAO using the ZeLonga scoring system, after which the anesthetized rats were quickly euthanized. The brain tissue was harvested and then sectioned into seven slices, with six slices subjected to 2,3,5-triphenyltetrazolium chloride (TTC) staining to calculate the brain infarct area, while the remaining slice was preserved for future use.
as §1
Paraffin sections were prepared as described for HE staining. The sections were dewaxed and antigen retrieval was performed using citric acid (pH 6.0). The sections were blocked in 0.1% Triton in PBS for 15 min. TUNEL reaction solution (TDT:dUTP:buffer = 1:5:50) was added, followed by blocking with BSA. After washing, sections were incubated with the secondary antibody (Cy3-goat anti-rabbit, GB21303, 1:300) at room temperature for 50 min. Finally, after PBS washing, the sections were stained with DAPI, mounted with an anti-fading mounting medium, and images were acquired using a fluorescence microscope (Nikon Eclipse C1, Tokyo, Japan).

[8] = Particle size and zeta potential; type: physicochemical; details: laser nanoparticle sizer Nano-ZS90
Description: The size distribution and zeta potential of LA-1 and loganin were determined using a laser nanoparticle sizer (Nano-ZS90, Malvern Instruments Ltd., Malvern, Worcestershire, UK).

[9] = 22 h reperfusion, loganin 30 mg/kg i.v.
[10] = LA-1 10 mg/kg, loganin 30 mg/kg i.v.

| SMILES | Intracellular amount over time (BEnd.3 cells [1]) | Cellular uptake of LA-1 relative to loganin (BEnd.3 cells [1]; 6 h incubation, n = 3) | Cell viability (cytotoxicity) (BEnd.3 cells [2]) | Pathophysiological changes in heart, liver, spleen and kidney tissue sections [3] | Decrease of cellular uptake in the presence of c(RGDfK) (BEnd.3 cells [4]) | Brain accumulation in ischemic brain tissue [5] | Time at which plasma concentration was below the limit of detection / undetectable [6] [min] | half-life ([6]; male, Sprague-Dawley, rat) [min] | Nanostructure morphology [7] | Neurological score (Zelonga) (MCAO rats) | Infarct area (TTC staining) (MCAO rats; 22 h reperfusion, LA-1 10 mg/kg, loganin 30 mg/kg i.v.) [%] | Infarct area versus model (TTC staining) (MCAO rats; [9]) | H&E staining of cortical neurons (MCAO rats; [10]) | Nissl staining of neurons (MCAO rats; [10]) | polydispersity index (PDI) [8] | Particle Size ([8]; mean ± SD) [nm] | Zeta Potential ([8]; mean ± SD) [mV] | Plasma half-life [6] [min] |
| --- | --- | --- | --- | --- | --- | --- | --- | --- | --- | --- | --- | --- | --- | --- | --- | --- | --- | --- |
| CC(C)[C@H](NC(=O)[C@H](CC(=O)O)NC(=O)CNC(=O)[C@H](CCCNC(=N)N)NC(=O)C1=CO[C@@H](O[C@@H]2O[C@H](CO)[C@@H](O)[C@H](O)[C@H]2O)[C@@H]2[C@@H](C)[C@@H](O)C[C@H]12)C(=O)O [LA-1, LA-Arg-Gly-Asp-Val] (X1-RGDV-OH) | continued to accumulate | approximately 2148 fold | no significant change | No significant pathophysiological changes | approximately 3 fold | dramatically higher than that of loganin | 90 | ~10 |  |  |  |  |  |  |  |  |  |  |
| COC(=O)C1=CO[C@@H](O[C@@H]2O[C@H](CO)[C@@H](O)[C@H](O)[C@H]2O)[C@@H]2[C@@H](C)[C@@H](O)C[C@H]12 [Loganin] | reached a plateau after 3 h |  | no significant change |  |  |  | 180 |  | irregular and unevenly dispersed | reduction trend in neurological score but without statistically significant difference | 16.843 | significant infarct area reduction | improved the morphology, though to a lesser extent than LA-1 | the recovery was less pronounced compared to LA-1 | 0.194 | 231.5 ± 81.23 | −4.16 ± 4.40 | ~45 |
| CC1=NN(c2ccccc2)C(=O)C1 [edaravone, Edaravone] |  |  |  |  |  |  |  |  |  | reduction trend in neurological score but without statistically significant difference |  | significant infarct area reduction |  |  |  |  |  |  |
